# Assay results reported in PMC9241669, “Allantodapsone is a Pan-Inhibitor of Staphylococcus aureus Adhesion to Fibrinogen, Loricrin, and Cytokeratin 10” (Microbiology Spectrum, 2022).
# Values joined by “and” are separate entries in the source; they are usually repeats but may differ in a detail not shown here. Identical values can stand only once.
# Assays:
# L. lactis ClfA = assay: Adhesion of L. lactis ClfA to immobilized fibrinogen; assay type: cell-based, Lactococcus lactis
# Experimental: FIG 1 Allantodapsone inhibits S. aureus Newman adhesion to fibrinogen. Dose response curves for S. aureus Newman (A), L. lactis ClfA (B), and L. lactis ClfB (C) adhesion to fibrinogen. Fibrinogen was used to coat plates at 4°C overnight at 10 μg/mL. Wells were washed with PBS and blocked with 1% BSA. Washed bacteria (OD600 of 1) were mixed with the relevant concentration of allantodapsone or vehicle control (DMSO) for 5 min, and added to the wells, incubating for 2 h at 37°C. Adherent cells were washed, fixed, and stained with crystal violet, and wells further washed. The dye was dissolved in acetic acid and the absorbance measured at 570 nm. IC50 values were generated using GraphPad Prism 9.0 GraphPad software, San Diego, CA. Data are representative of three experiments with error presented as SEM.
# Adhesion assays were carried out according to Hartford et al. ([37]). Briefly, plates were coated with 10 μg/mL fibrinogen (Calbiochem, Darmstadt, Germany) or 20 μg/mL fibronectin (Sigma-Aldrich, Ireland) for 2 h at 37°C or for 16 h at 4°C. Plates were blocked with 1% BSA at 37°C for 1 h and washed 3 times in PBS. Washed bacteria were incubated at 37°C for 2 h. […] Plates were read at 570 nm on a Wallac Victor2, (Shelton, CT, USA). The minimum adhesion inhibitory concentration (MAIC) was determined as the concentration inhibiting greater than 90% bacterial adhesion. […]
# S. aureus Newman = assay: Adhesion of S. aureus Newman to cytokeratin 10 (CK10); assay type: cell-based, Staphylococcus aureus; details: CK10 10 nM
# Experimental: FIG 4 Allantodapsone inhibits S. aureus adhesion to loricrin and cytokeratin 10. Dose-response curve for adhesion of S. aureus Newman to GST-L2v loricrin (A) and CK10 (C). (B) Inhibition of recombinant ClfB N2N3 binding to immobilized GST-L2v loricrin by allantodapsone. (D) Inhibition of S. aureus Newman adhesion to GST-L2v loricrin by allantodapsone derivatives. Purified GST-L2v or CK10 were used to coat plates at 4°C overnight. Wells were washed with PBS and blocked with 1% BSA. Washed bacteria (OD600 of 1) were mixed with allantodapsone or vehicle control before being added to the wells and incubated for 2 h at 37°C. Adherent cells were washed, fixed, and stained with crystal violet, and wells further washed. The dye was dissolved in acetic acid, and the absorbance measured at 570 nm. GST-L2v was used at 20 μM in A and D. CK10 was used at 10 nM. […] Bound ClfB was detected using peroxidase-conjugated anti-His monoclonal antibody in an ELISA. […]
# Adhesion assays were carried out according to Hartford et al. ([37]). […] Plates were read at 570 nm on a Wallac Victor2, (Shelton, CT, USA). The minimum adhesion inhibitory concentration (MAIC) was determined as the concentration inhibiting greater than 90% bacterial adhesion.
# [1] = test system: platelet aggregation induced by S. aureus Newman; assay: Platelet aggregation induced by S. aureus Newman in platelet rich plasma; assay type: cell-based, human; details: 100 μM allantodapsone, 5 minutes prior to aggregation
# Experimental: V. Microbiology: Materials and Methods
# The MTT toxicity assay (1) (Vybrant MTT Cell Proliferation Assay, Molecular Probes, Or, USA) was used to measure cytotoxicity. Myeloid lineage, U-937 cells (2) were grown in RPMI-1640 (Gibco) culture medium supplemented with 10% foetal calf serum, 1% L-glutamine and 1% Penicillin/Streptomycin (Gibco). U-937 cells were centrifuged and cells diluted with fresh medium containing 1.2 mM MTT solution to a concentration of (5-6 x 10^6 per mL) and incubated at 37 °C for 2 h. Cells were centrifuged and the pellet dissolved in DMSO. The absorbance was read at 490 nm using the Wallac Victor2, (Shelton, Connecticut, USA).
# Platelet aggregation was performed in platelet rich plasma according to O’Brien et al.
# S. aureus Newman (stationary phase) was washed and diluted to an OD600 of 2.5.
# This was mixed with 10 mg/mL of fibrinogen in 1:1 ratio resulting in a final concentration 5 mg/mL fibrinogen. Fibrinogen -bacteria aggregates clump and settle at the bottom of the tube resulting in a clear solution. These were compared to the turbid bacterial suspension in buffer by visual inspection. […]
# of S. aureus Newman was used as an agonist to stimulate platelet aggregation. […] Data was analysed by repeated measures ANOVA followed by a multiple comparison Dunnett’s test. […]
structure (smiles),measurement,setting,value
Nc1ccc(S(=O)(=O)c2ccc(NCN3C(=O)NC(=O)C(=O)C3=O)cc2)cc1 [Allantodapsone],minimum adhesion inhibitory concentration (MAIC),"L. lactis ClfA; L. lactis ClfA, fibrinogen",10 μM and 4.0 μg/mL
same,IC50,"L. lactis ClfA; Lactococcus lactis, read-out: IC50, inhibition of adhesion to fibrinogen",3.8 µM
same,inhibition of adhesion to CK10,S. aureus Newman,dose dependent inhibition
same,inhibition of S. aureus Newman induced platelet aggregation,[1],did not inhibit
